# Assay results published in patent publication US20080076721A1, “Use of branched chain fatty acid amino acid salts and compositions thereof” (priority 2006, published 2008).
# Entries after “also recorded” stand apart in the source; their conditions may differ.
# Assay: L-arginine phytanate method of use: 4-week oral post-workout supplementation in an experienced weight trained person (body weight, bench press)
# Assay type: in vivo, human
# From the text: In this example a experienced weight trained person orally consumes 3 grams of L-arginine phytanate post workout for 4 weeks as a beverage, consumes no supplements for 4 weeks, then orally consumes phytanic acid in the same manner post workout for 4 weeks. The L-arginine phytanate is incorporated into free powder mixture of flavoring agents and palatinose, which is then combined with water. Once in the plasma L-arginine phytanate then exerts a synergistic lean tissue promoting effect due to the anabolic actions of phytanic acid and L-arginine. Phytanic acid activates PPAR alpha, beta/delta, gamma, and increases nitric oxide synthase thus increasing nitric oxide production. This wide range of PPAR receptor activation and nitric oxide release combined with a high protein diet and anaerobic training program, enhances muscle building and fat loss. The L-arginine synergistically promotes protein synthesis and nitric oxide release. These physiological functions lead to increases in lean body mass, strength, endurance, recovery and loss of body fat. The test subject reported a weight gain of 5 lbs., a 25-pound increase in 1 repetition maximum (RM) bench press, and 6-repetition increase in initial 70 percent maximum bench press at the end of the L-arginine phytanate 4-week period as compared to baseline values. These increases contribute to the regulation of athletic function and thus lead to enhanced physical performance. […] During the final phase of the experiment, the test subject reported no increases in body weight, 1 repetition maximum bench press, or 70 percent maximum bench press.
# [1] = experienced weight trained person, 3 grams orally post workout for 4 weeks, end of 4-week period compared to baseline
# [2] = same subject, final phase after 4-week washout, orally in the same manner post workout for 4 weeks, result in words
Structure (SMILES),"weight gain (experienced weight trained person, 3 grams orally post workout for 4 weeks as a beverage, end of 4-week period compared to baseline) [lbs.]",increase in 1 repetition maximum (RM) bench press [1] [pound],increase in initial 70 percent maximum bench press [1] [repetition],1 repetition maximum bench press change [2],70 percent maximum bench press change [2],body weight change [2]
"CC(C)CCCC(C)CCCC(C)CCCC(C)CC(=O)O.N=C(N)NCCC[C@H](N)C(=O)O [L-arginine phytanate, 3,7,11,15-tetramethylhexadecanoic L-arginine salt]",5,25,6,,,
"CC(C)CCCC(C)CCCC(C)CCCC(C)CC(=O)O (stereo not drawn) [phytanic acid, 3,7,11,15-tetramethylhexadecanoic acid]",,,,no increases,no increases,no increases; also recorded: decrease in body weight
